Source: article PMC11704008 (Scientific Reports, 2025)
Converted amounts (≈) assume the structure as drawn. Where two headings read alike, the source gives them in different places.

Assays:
[1] = assay type: physicochemical
[2] = assay type: physicochemical; remark: listed apart in the source

C[C@](N)(Cc1ccc(O)c(O)c1)C(=O)O [methyldopa, Methyldopa]
y × 10^5 (mole fraction in ScCO2) ([1]; 313 K, 12 MPa, CO2 density 719.2 kg.m^−3): 2.481 | y × 10^5 (mole fraction in ScCO2) ([1]; 313 K, 15 MPa, CO2 density 781.2 kg.m^−3): 3.013 | y × 10^5 (mole fraction in ScCO2) ([1]; 313 K, 18 MPa, CO2 density 820.7 kg.m^−3): 3.942 | y × 10^5 (mole fraction in ScCO2) ([1]; 313 K, 21 MPa, CO2 density 850.4 kg.m^−3): 4.531 | y × 10^5 (mole fraction in ScCO2) ([1]; 313 K, 24 MPa, CO2 density 873.9 kg.m^−3): 5.520 | y × 10^5 (mole fraction in ScCO2) ([1]; 313 K, 27 MPa, CO2 density 893.5 kg.m^−3): 6.320 | y × 10^5 (mole fraction in ScCO2) ([1]; 313 K, 30 MPa, CO2 density 910.3 kg.m^−3): 7.652 | y × 10^5 (mole fraction in ScCO2) ([1]; 323 K, 12 MPa, CO2 density 587.2 kg.m^−3): 1.880 | y × 10^5 (mole fraction in ScCO2) ([1]; 323 K, 15 MPa, CO2 density 701.1 kg.m^−3): 3.390 | y × 10^5 (mole fraction in ScCO2) ([1]; 323 K, 18 MPa, CO2 density 758.8 kg.m^−3): 4.490 | y × 10^5 (mole fraction in ScCO2) ([1]; 323 K, 21 MPa, CO2 density 797.4 kg.m^−3): 5.910 | y × 10^5 (mole fraction in ScCO2) ([1]; 323 K, 24 MPa, CO2 density 826.1 kg.m^−3): 7.114 | y × 10^5 (mole fraction in ScCO2) ([1]; 323 K, 27 MPa, CO2 density 851.7 kg.m^−3): 7.790 | y × 10^5 (mole fraction in ScCO2) ([1]; 323 K, 30 MPa, CO2 density 871.5 kg.m^−3): 8.832 | y × 10^5 (mole fraction in ScCO2) ([1]; 333 K, 12 MPa, CO2 density 435.3 kg.m^−3): 1.520 | y × 10^5 (mole fraction in ScCO2) ([1]; 333 K, 15 MPa, CO2 density 606.8 kg.m^−3): 2.841 | y × 10^5 (mole fraction in ScCO2) ([1]; 333 K, 18 MPa, CO2 density 688.4 kg.m^−3): 5.090 | y × 10^5 (mole fraction in ScCO2) ([1]; 333 K, 21 MPa, CO2 density 740.3 kg.m^−3): 7.050 | y × 10^5 (mole fraction in ScCO2) ([1]; 333 K, 24 MPa, CO2 density 777.5 kg.m^−3): 8.125 | y × 10^5 (mole fraction in ScCO2) ([1]; 333 K, 27 MPa, CO2 density 806.7 kg.m^−3): 9.163 | y × 10^5 (mole fraction in ScCO2) ([1]; 333 K, 30 MPa, CO2 density 830.5 kg.m^−3): 9.960 | y × 10^5 (mole fraction in ScCO2) ([1]; 343 K, 12 MPa, CO2 density 346.1 kg.m^−3): 0.805 | y × 10^5 (mole fraction in ScCO2) ([1]; 343 K, 15 MPa, CO2 density 507.5 kg.m^−3): 2.043 | y × 10^5 (mole fraction in ScCO2) ([1]; 343 K, 18 MPa, CO2 density 613.5 kg.m^−3): 5.410 | y × 10^5 (mole fraction in ScCO2) ([1]; 343 K, 21 MPa, CO2 density 678.9 kg.m^−3): 7.484 | y × 10^5 (mole fraction in ScCO2) ([1]; 343 K, 24 MPa, CO2 density 724.9 kg.m^−3): 8.632 | y × 10^5 (mole fraction in ScCO2) ([1]; 343 K, 27 MPa, CO2 density 760.3 kg.m^−3): 10.061 | y × 10^5 (mole fraction in ScCO2) ([1]; 343 K, 30 MPa, CO2 density 788.9 kg.m^−3): 11.345 | solubility at 5 h ([1]; solubility S in ScCO2, range over all conditions, 12–30 MPa, 313–343 K): 0.0134 to 0.428 mg/mL (≈ 63.4 to 2030 µM) | solvation heat (ΔHsol) ([2]; difference between ΔHvap and ΔHtotal): -22.52 kJ/mol | total heat (∆Htotal), Chrastil model ([2]; methyldopa in ScCO2): 34.35 kJ/mol | vaporization heat (∆Hvap), Bartle et al. model ([2]; methyldopa in ScCO2): 56.87 kJ/mol
